Laboratory results as given in patent publication US20240025862A1, “SUBSTITUTED N-PHENYLURACILS AND SALTS THEREOF, AND USE THEREOF AS HERBICIDAL ACTIVE SUBSTANCES” (Bayer Aktiengesellschaft, priority 2020, published 2024).

Columns and labels:
Type in all cases: in vivo
[1] = test system: Triticum aestivum (TRZAS); assay: Post-emergence crop plant compatibility, greenhouse pot test; details: vs untreated controls
Description: (§1) Seeds of monocotyledonous and dicotyledonous weeds and crop plants were placed in sandy loam in plastic or wood-fiber pots, covered with soil and cultivated in a greenhouse under controlled growth conditions. 2 to 3 weeks after sowing, the test plants were treated at the one-leaf stage. The compounds of the invention, formulated in the form of wettable powders (WP) or as emulsion concentrates (EC), were then sprayed onto the green parts of the plants as aqueous suspension or emulsion with addition of 0.5% additive at a water application rate of 600 l/ha (converted). After the test plants had been kept in the greenhouse under optimum growth conditions for about 3 weeks, the activity of the preparations was rated visually in comparison to untreated controls. For example, 100% activity=the plants have died, 0% activity=like control plants.
(§2) The observed effects on selected crop plants are reported here in comparison to the untreated controls (values in %). The appendices “a”, “b” and “c” give differentiation by different dosage with otherwise the same crop plants tested.

[2] = test system: Echinochloa crus-galli (ECHCG); assay: Post-emergence herbicidal action, greenhouse pot test (also comparative test C); details: for Post-emergence action at 1.25 g/ha against ECHCG in %: rated visually after about 3 weeks vs untreated controls, 100% = plants have died
Description: as §1
(§3) Tables A1 to A14 below show the effects of selected compounds of the general formula (I) according to Tables I.1 to I.33 on various harmful plants and at an application rate corresponding to 20 g/ha and less, which were obtained by the experimental method specified above. The appendices “a”, “b” and “c” give differentiation by different dosage with otherwise the same harmful plants tested.
(§4) C. Comparative Herbicidal Action and Crop Plant Compatibility of Two Inventive Compounds (I.7-1 and I.7-115) with a Compound of Similar Structure Known from the Literature (WO2002/098227, a-17 and EP1106607, 3-14) in Post-Emergence Treatment.
(§5) Tables C1-C4 below show the effects of two inventive compounds (I.7-1 and I.7-115) together with a compound of similar structure known from the literature (a-17 in WO2002/098227, and 3-14 in EP1106607) in different crop plants at an application rate corresponding to 5 g/ha or less, which have been obtained by the aforementioned experimental procedure.

Setaria viridis (SETVI) = assay: as above; details: for Post-emergence action against SETVI: 20 g/ha
Description: as §1, §3, §4, §5

[3] = test system: Alopecurus myosuroides (ALOMY); assay: as above; details: for Post-emergence action at 20 g/ha against ALOMY in %: rated visually after about 3 weeks vs untreated controls, 100% = plants have died; for ALOMY (efficacy in %): comparative test C, application rate 5 g/ha
Description: as §1, §3, §4, §5

[4] = test system: Matricaria inodora (MATIN); assay: as above
Description: as §1, §3, §4, §5

Oryza sativa (ORYSA) = assay: Post-emergence crop plant compatibility, greenhouse pot test (also comparative test C); details: for Post-emergence action against ORYSA (crop plant compatibility): vs untreated controls; for Post-emergence action against ORYSA in %: 20 g/ha
Description: as §1, §2, §4

[5] = test system: Abutilon theophrasti (ABUTH); assay: Post-emergence herbicidal action, greenhouse pot test; details: rated visually after about 3 weeks vs untreated controls, 100% = plants have died
Description: as §1, §3

Viola tricolor (VIOTR) = assay: as above
Description: as §1, §3

[6] = test system: Amaranthus retroflexus (AMARE); assay: as above; details: rated visually after about 3 weeks vs untreated controls, 100% = plants have died
Description: as §1, §3

[7] = test system: Pharbitis purpurea (PHBPU); assay: as above
Description: as §1, §3

[8] = test system: Polygonum convolvulus (POLCO); assay: as above
Description: as §1, §3

Veronica persica (VERPE) = assay: as above
Description: as §1, §3

[9] = comparative test C, application rate 1.25 g/ha

SMILES | Post-emergence action against TRZAS (crop plant compatibility) ([1]; 1.25 g/ha) [%] | Post-emergence action against ECHCG in % ([2]; dosage 20 g/ha) [%] | Post-emergence action against SETVI (Setaria viridis (SETVI)) [%] | Post-emergence action against SETVI in % (Setaria viridis (SETVI); dosage 1.25 g/ha) [%] | Post-emergence action against SETVI in % (Setaria viridis (SETVI); dosage 5 g/ha) [%] | Post-emergence action at 20 g/ha against ALOMY in % [3] [%] | Post-emergence action against MATIN in % ([4]; dosage 5 g/ha) [%] | Post-emergence action against MATIN in % ([4]; dosage 20 g/ha) [%] | Post-emergence action at 1.25 g/ha against ABUTH in % [5] [%] | Post-emergence action at 5 g/ha against ABUTH in % [5] [%] | Post-emergence action at 20 g/ha against ABUTH in % [5] [%] | Post-emergence action against VIOTR (Viola tricolor (VIOTR); 1.25 g/ha) [%] | Post-emergence action against VIOTR (Viola tricolor (VIOTR); 5 g/ha) [%] | Post-emergence action against VIOTR (Viola tricolor (VIOTR); 20 g/ha) [%] | Post-emergence action at 1.25 g/ha against AMARE in % [6] [%] | Post-emergence action at 5 g/ha against AMARE in % [6] [%] | Post-emergence action at 20 g/ha against AMARE in % [6] [%] | Post-emergence action against PHBPU in % ([7]; dosage 1.25 g/ha) [%] | Post-emergence action against PHBPU in % ([7]; dosage 5 g/ha) [%] | Post-emergence action against PHBPU in % ([7]; dosage 20 g/ha) [%] | also measured
Cn1c(C(F)(F)F)cc(=O)n(-c2cc(Oc3c(F)cccc3OCC(=O)OCC#N)c(Cl)cc2F)c1=O [I.19-176] | 20 | 100 | 100 | 90 | 100 | 80 | 100 | 100 | 100 | 100 | 100 | 80 | 100 | 100 | 100 | 100 | 100 | 100 | 100 | 100 | Post-emergence action against ECHCG in % ([2]; dosage 5 g/ha): 100%; Post-emergence action against ORYSA (crop plant compatibility) (Oryza sativa (ORYSA); 1.25 g/ha): 0%; Post-emergence action against POLCO in % ([8]; dosage 1.25 g/ha): 100%; Post-emergence action against POLCO in % ([8]; dosage 5 g/ha): 100%; Post-emergence action against POLCO in % ([8]; dosage 20 g/ha): 100%; Post-emergence action against VERPE (Veronica persica (VERPE); 1.25 g/ha): 100%; Post-emergence action against VERPE (Veronica persica (VERPE); 5 g/ha): 100%; Post-emergence action against VERPE (Veronica persica (VERPE); 20 g/ha): 100%
COCCOCCOC(=O)COc1ccccc1Oc1cc(-n2c(=O)cc(C(F)(F)F)n(C)c2=O)c(F)cc1C#N [I.9-23] | 0 | 100 | 100 | 100 | 100 | 80 | 80 | 100 | 80 | 100 | 100 | 100 | 100 | 100 | 100 | 100 | 100 | 80 | 100 | 100 | Post-emergence action against TRZAS (crop plant compatibility) ([1]; 5 g/ha): 20%; Post-emergence action against TRZAS (crop plant compatibility) ([1]; 20 g/ha): 20%; Post-emergence action against ORYSA (crop plant compatibility) (Oryza sativa (ORYSA); 1.25 g/ha): 0%; Post-emergence action against ORYSA (crop plant compatibility) (Oryza sativa (ORYSA); 5 g/ha): 0%; Post-emergence action against ORYSA in % (Oryza sativa (ORYSA); crop plant compatibility): 20%; Post-emergence action against POLCO in % ([8]; dosage 5 g/ha): 100%; Post-emergence action against POLCO in % ([8]; dosage 20 g/ha): 100%; Post-emergence action against VERPE (Veronica persica (VERPE); 1.25 g/ha): 80%; Post-emergence action against VERPE (Veronica persica (VERPE); 5 g/ha): 100%; Post-emergence action against VERPE (Veronica persica (VERPE); 20 g/ha): 100%
Cn1c(C(F)(F)F)cc(=O)n(-c2cc(Oc3cc(F)ccc3OCC(=O)OCc3ccccn3)c(Cl)cc2F)c1=O [I.23-276] | 20 | 100 | 100 | 100 | 100 | 100 | – | 90 | 90 | 100 | 100 | 80 | 100 | 100 | 90 | 100 | 100 | 90 | 100 | 100 | Post-emergence action against TRZAS (crop plant compatibility) ([1]; 5 g/ha): 20%; Post-emergence action at 1.25 g/ha against ECHCG in % [2]: 100%; Post-emergence action against ECHCG in % ([2]; dosage 5 g/ha): 100%; Post-emergence action against ORYSA (crop plant compatibility) (Oryza sativa (ORYSA); 1.25 g/ha): 0%; Post-emergence action against ORYSA (crop plant compatibility) (Oryza sativa (ORYSA); 5 g/ha): 10%; Post-emergence action against ORYSA in % (Oryza sativa (ORYSA); crop plant compatibility): 10%; Post-emergence action against POLCO in % ([8]; dosage 20 g/ha): 100%; Post-emergence action against VERPE (Veronica persica (VERPE); 1.25 g/ha): 80%; Post-emergence action against VERPE (Veronica persica (VERPE); 5 g/ha): 100%; Post-emergence action against VERPE (Veronica persica (VERPE); 20 g/ha): 100%
CCCCOC(=O)COc1ccccc1Oc1cc(-n2c(=O)cc(C(F)(F)F)n(C)c2=O)c(F)cc1Cl [a-17, reference compound] | – | – | – | – | – | – | – | – | – | – | – | – | – | – | – | – | – | – | – | – | ECHCG (efficacy in %) [2, 9]: 60%; SETVI (efficacy in %) (Setaria viridis (SETVI); [9]): 80%; MATIN (efficacy in %) [4, 9]: 30%; ORYSA (efficacy in %) (Oryza sativa (ORYSA); comparative test C, application rate 1.25 g/ha, crop plant compatibility): 20%
COCCOC(=O)COc1cccc(F)c1Oc1cc(-n2c(=O)cc(C(F)(F)F)n(C)c2=O)c(F)cc1Cl [I.19-1] | 20 | 100 | 100 | 100 | 100 | 100 | 90 | 100 | 100 | 100 | 100 | 100 | 100 | 100 | 100 | 100 | 100 | 100 | 100 | 100 | Post-emergence action at 1.25 g/ha against ECHCG in % [2]: 100%; Post-emergence action against ECHCG in % ([2]; dosage 5 g/ha): 100%; Post-emergence action against POLCO in % ([8]; dosage 5 g/ha): 100%; Post-emergence action against POLCO in % ([8]; dosage 20 g/ha): 100%; Post-emergence action against VERPE (Veronica persica (VERPE); 1.25 g/ha): 100%; Post-emergence action against VERPE (Veronica persica (VERPE); 5 g/ha): 100%; Post-emergence action against VERPE (Veronica persica (VERPE); 20 g/ha): 100%
Cn1c(C(F)(F)F)cc(=O)n(-c2cc(Oc3ccccc3OCC(=O)OCC3CCCO3)c(Cl)cc2F)c1=O (racemic) [Example 1.7-71] | – | – | – | – | – | – | 100 | – | – | – | – | – | – | – | – | – | – | – | – | – | –
COCCOC(=O)COc1ccccc1Oc1cc(-n2c(=O)cc(C(F)(F)F)n(C)c2=O)c(F)cc1Cl [drawing 110] | – | – | – | – | – | – | – | – | – | – | – | – | – | – | – | – | – | – | – | – | ALOMY (efficacy in %) [3]: 80%
Cn1c(C(F)(F)F)cc(=O)n(-c2cc(Oc3ccccc3OCC(=O)OC3COC3)c(Cl)cc2F)c1=O [drawing 111] | – | – | – | – | – | – | – | – | – | – | – | – | – | – | – | – | – | – | – | – | ALOMY (efficacy in %) [3]: 100%
CCCCOC(=O)COc1ccccc1Oc1cc(-n2c(=O)cc(C(F)(F)F)n(C)c2=O)c(F)cc1Cl [drawing 112] | – | – | – | – | – | – | – | – | – | – | – | – | – | – | – | – | – | – | – | – | ALOMY (efficacy in %) [3]: 30%
